From a melting point compilation (Tetko et al.) come the findings set out here.

Structures are written as SMILES.

`CC1CCOS(=O)O1` (configuration not stated) returned a melting point of 5 °C.
Take `COc1cc(C(=O)c2ccc(-c3ccccc3)cc2)c([N+](=O)[O-])cc1OC`: the melting point is 144 to 145 °C.
Compound `COc1ccc(C(C)=O)cc1CCl` came in with a melting point of 116 to 118 °C.
`COc1ccc(Oc2ccc([N+](=O)[O-])cc2C(=O)Cl)cc1` gave a melting point of 91 to 93 °C.
`Nc1cc2ccccc2cc1C(=O)O` displayed a melting point of 216 °C.
The result for `N=C1NC(=N)c2ccccc21` reads 190 °C.
Turning to `CC(CCC(=O)O)C1CCC2C3CCC4CCCCC4(C)C3CC(O)C12C` (configuration not stated), the melting point lay in the range of 186 to 188 °C.
The same measure for `O=[N+]([O-])c1ccc(-c2nnc3sc(/C=C/c4ccccc4)nn23)cc1`: 112 to 114 °C.
On to `CC(=O)Oc1cn(C(C)=O)c2ccc(Br)c(Cl)c12`, for which the melting point was found to be 166 °C.
The result for `O=C1OC(C2CCCCC2)Cc2ccccc21` (configuration not stated) reads 71 to 74 °C.
`Cc1nc2cc([N+](=O)[O-])ccc2s1` had a melting point of 133 °C.
As for `O=C1C=CC(=O)c2ccccc21`, the melting point stood at 128 °C.
With `CCCCNc1ccccc1`, the melting point was -12 °C.
The same measure for `CCOC(=O)c1cn[nH]c1NC(=O)Nc1ccc(Cl)c(Cl)c1`: 269 to 270 °C; for `Cc1cc(C)cc(C2Oc3c(Cl)c(Cl)c(Cl)c(Cl)c3O2)c1`: 160 °C.
`CCOC(=O)c1c(-c2ccccc2)csc1NC(=O)CCl`: the melting point fell in the range of 99 to 100 °C.
In turn, `O=C(O)COc1ccccc1O` gave a melting point of 128 °C.
The result for `CCCCC(N)C(=O)O` (configuration not stated) reads 300 °C; that for `CC(C)C1CCCCC1=O` (configuration not stated), 72.5 °C.
The result for `CCCc1ccc(O)cc1O` reads 82.5 °C; that for `CC(=O)Oc1c(-c2ccccc2)n(C(C)=O)c2cc([N+](=O)[O-])c(/C(Cl)=C/c3ccccc3)cc12`, 57 to 58 °C; that for `Cc1ccc(-c2cc(-c3ccccn3)nc(-c3ccccn3)c2)cc1`, 169 °C.
The result for `CC(CCC(=O)O)C1CCC2C3C(=O)CC4CC(C(=O)O)CCC4(C)C3CC(C(=O)O)C12C` (configuration not stated) reads 207 to 209 °C.
Regarding `COC(=O)c1sc2ccccc2c1Cl`, the melting point came to 81 °C.
On to `N#CC(=Cc1cccs1)c1nc2ccccc2s1`, for which the melting point came to 148 °C.
Compound `CCCCOc1ccc(/C=N/NC(=O)C(=O)N/N=C/c2ccc(OCCCC)cc2)cc1` showed a melting point of 301 to 303 °C.
The same measure for `c1ccc(C2OC2c2ccccc2)cc1` (configuration not stated): 67 to 70 °C; for `CC1(C)C2CCC1(C)C(O)C2CCO` (configuration not stated): 83 °C; for `CC(C)(CC(=O)O)c1ccccc1`: 60 °C.
The same measure for `Brc1coc2ccccc12`: 35 to 38 °C; for `CC12CCC3C4CCC(=O)C(O)=C4CCC3C1CCC2O` (configuration not stated): 189 °C; for `CCCCCCCCCC=CC(=O)O`: 17.1 °C.
Take `COc1cc2nc(N3CCN(C(=O)C4CCCO4)CC3)nc(N)c2cc1OC` (configuration not stated): the melting point came to 273 °C.
In turn, `Fc1ccccc1C1=NCC(=S)N(CC(F)(F)F)c2ccc(Cl)cc21` showed a melting point of 138 °C.
The result for `COc1ccc(C=C2C3=C(CCCC3)OC3=C2CCCC3)cc1` reads 123 to 124 °C; that for `O=Cc1cc(F)c(F)c(F)c1`, 25.3 °C.
The same measure for `COc1ccc(C2(C(=O)O)CCCC2)cc1`: 151 to 156 °C; for `FC(F)(F)c1nnc2sc(=S)[nH]n12`: 160 °C; for `OCCc1ccccc1`: -27 °C.
The same measure for `NNC(=O)c1ccccc1Oc1ccccc1`: 99 to 103 °C.
Turning to `CC(=O)Nc1cccc(N)c1`, the melting point is 84 to 88 °C.
The same measure for `CCC(CO)[N+](=O)[O-]` (configuration not stated): -47 °C.
The result for `CCOC(=O)c1csc(-c2ccc(F)cc2F)n1` reads 50 to 52 °C.
`CC(=O)Nc1sc2c(c1C#N)CCCC2` returned a melting point of 215 to 217 °C.
The result for `CCCCCC(C)OC(=O)COc1ccc(Cl)c2cccnc12` (configuration not stated) reads 69.4 °C; that for `Nc1ccc(I)cc1`, 67.5 °C.
`O=c1c2ccccc2[nH]c(=S)n1-c1ccc(F)cc1` gave a melting point of 337 to 339 °C.
In turn, `Cc1sc(-c2ccncc2)nc1-c1ccccc1` returned a melting point of 84 °C.
In turn, `CC(=O)NC1C(OCc2ccccc2)OC(COC(c2ccccc2)(c2ccccc2)c2ccccc2)C(O)C1O` (configuration not stated) returned a melting point of 102 to 107 °C.
The result for `CC1(C)O[C@@H]2[C@H](O1)[C@@H]1C[C@H]2NC1=O` reads 150 to 152 °C; that for `Nc1ccc(Cl)c(Cl)c1`, 72 °C.
`O=C1COc2ccc(S(=O)(=O)Cl)cc2N1` returned a melting point of 178 °C.
The result for `O=[N+]([O-])c1ccc2[nH]c(=S)[nH]c2c1` reads 275 °C; that for `CC(=O)c1cc(Br)cc([N+](=O)[O-])c1O`, 131 °C; that for `Cc1cc(C(=O)O)cc(C)c1[N+](=O)[O-]`, 224 °C.
The result for `C[C@H]([C@@H](O)c1ccccc1)N1CCCC1` reads 45 °C; that for `N#Cc1ccc(S(=O)(=O)Cl)c(Cl)c1`, 103 °C; that for `N#Cc1ccc(CS(=O)(=O)Cl)cc1`, 99.5 to 102 °C.
For the compound `CC(=O)Nc1ccc(N)cc1C`, the melting point is 141 to 142 °C.
The same measure for `Cc1ccc(Oc2ccc(Br)cc2)nn1`: 120 °C; for `CCOC(=O)c1cc(Cl)cc(Cl)c1`: 35 to 36 °C; for `O=C(O)c1ccccc1N=NC1SC(=S)NC1=O` (configuration not stated): 244 to 245 °C.
As to `O=C(O)CCc1ccccc1F`, the melting point was 76 to 78 °C.
The compound `CCCC(C1CCCCC1)C1CCCCC1` displayed a melting point of -10.5 °C.
In turn, `CCCCCCCCCCCCCCCC(=O)Oc1ccc(N=Cc2cccnc2)cc1` registered a melting point of 87.6 °C.
As to `OCc1ccc2nccn2c1`, the melting point is 106 to 108 °C.
The result for `CCCC#CCCCCCC` reads -74.7 °C.
Compound `NS(=O)(=O)c1ccc(SCCCCO)cc1` returned a melting point of 101 °C.
As for `Clc1nc[nH]c1Cl`, the melting point lay in the range of 185 to 186 °C.
Compound `Nc1ccc(S(=O)(=O)c2ccc([N+](=O)[O-])cc2)cc1` had a melting point of 170 °C.
Regarding `Cc1ccc(-n2cccc2C=O)cc1`, the melting point lay in the range of 48 to 50 °C.
The same measure for `CCCCOP(=O)(O)OCCCC`: -13 °C.
The same measure for `O=Cc1c[nH]nc1-c1cccs1`: 102 to 103 °C; for `CSCCC(N)CO` (configuration not stated): 31 to 36 °C; for `O=Nc1ccc(O)c2ncccc12`: 245 °C.
The same measure for `CSc1cc(-c2ccc(Cl)cc2)c2c(=O)n(-c3ccccc3)n(C)c2c1`: 167 °C; for `BrCc1cccc(N2CCCC2)n1`: 69 to 72.5 °C.
As for `CCCn1cnc2c1c(=O)n(CCCCC(C)=O)c(=O)n2C`, the melting point amounted to 69 °C.
The result for `CC(=O)Nc1ccc(C(C)=O)c(O)c1` reads 143 to 145 °C; that for `CC(=O)Nc1ccc(S(=O)(=O)Cl)cc1`, 149 °C; that for `COc1ccc(Cl)cc1N=C=O`, 60 to 62 °C.
The result for `O=C(O)C=Cc1ccc(F)cc1Cl` reads 247 °C; that for `O=[N+]([O-])c1cc(S(=O)(=O)Cl)sc1Cl`, 53 °C.
With `CCOC(=O)C1C(c2ccc(OC)cc2)C(C(=O)OCC)C(O)(C(F)(F)F)NC1(O)C(F)(F)F` (configuration not stated), the melting point stood at 109 °C.
`N#Cc1ccc(C(F)(F)F)cc1` came in with a melting point of 38 °C.
Take `O=Cc1ccc(F)cc1`: the melting point was -10 °C.
The result for `CCOC(=O)/C=C/[C@@H]1[C@@H](c2ccccc2)N1C(=O)c1ccccc1` reads 118 °C.
In the case of `Cc1ccc(S(=O)(=O)N2C/C(=C\c3cccc(Cl)c3)N(S(=O)(=O)c3ccc(C)cc3)c3ccccc32)cc1`, the melting point was determined as 145 °C.
In turn, `CCOC(=O)Cc1ccccc1Br` gave a melting point of 37 °C.
The same measure for `CCC#CCCCCCCCCCCCCCC`: 2 °C.
The result for `COC(=O)C=C(C)OP(=O)(OC)OC` reads 21 °C; that for `O=[N+]([O-])c1cccnc1Oc1ccc(F)cc1F`, 63 to 65 °C.
The same measure for `COc1cccc(CO)c1O`: 59 to 63 °C.
`COc1cc2c(cc1OC)CC2`: the melting point came to 91 °C.
The same measure for `COc1cc(C(=O)O)cc(OC(C)=O)c1OC`: 151 °C; for `CCOC(=O)C1CCN(c2cc(C#N)ccn2)CC1`: 51 to 53 °C; for `CC(=O)N=C1C=CC(=O)C=C1`: 74.5 °C.
Compound `N#Cc1ccc(OCCN2CCOCC2)cc1` yielded a melting point of 87 to 90 °C.
The result for `CC(Cc1ccc(O)c(O)c1)C(C)Cc1ccc(O)c(O)c1` (configuration not stated) reads 186 °C.
In the case of `FC(F)(F)COCC(F)(F)F`, the melting point is less than 25 °C.
The same measure for `CC(C)(C)c1cnc(C(=O)Nc2cc(C(F)(F)F)cc(C(F)(F)F)c2)cn1`: 136 °C; for `CCOC(=O)c1ccc(O)c(O)c1`: 134 °C.
The result for `NCCCS(=O)(=O)O` reads 270 °C; that for `O=C1CC(=O)CC(c2ccc(F)cc2)C1`, 174 to 178 °C.
In the case of `O=C1c2ccc(O)cc2C(=O)c2cc(O)ccc21`, the melting point was found to be 354 °C.
The same measure for `Cc1cc(C)n(-c2ccc(C(=O)O)cc2)n1`: 163 °C; for `O=[N+]([O-])c1cc(Cl)cnc1Cl`: 38 to 42 °C; for `CC1=CC(=O)c2c(O)cccc2C1=O`: 78.5 °C.
In the case of `Nc1ccc2ccccc2c1N`, the melting point is 98.5 °C.
The same measure for `Cc1[nH]c2ccccc2c1C=O`: 204 to 205 °C; for `Cc1cc([N+](=O)[O-])c[nH]c1=O`: 230 to 234 °C.
The same measure for `Cc1cccc2c1/C(=N/Nc1ccc([N+](=O)[O-])cc1[N+](=O)[O-])C2`: 228 °C.
